Measured values from ChEMBL document CHEMBL4622879, “Structural Revision of Garcinielliptin Oxide and Garcinielliptone E” (J Nat Prod, 2020).
Calls of active or inactive are those of the source. The rule behind the calls is not given here.

Legend:
RAW264.7 = experiment: Antiinflammatory activity in mouse RAW264.7 assessed as reduction in LPS-induced NO production; type: functional, cell-based
HepG2 = experiment: Cytotoxicity against human HepG2 cells at 40 uM after 1 to 11 days by tetrazolium reagent based assay; type: functional, cell-based
MDA-MB-231 = experiment: Cytotoxicity against human MDA-MB-231 cells at 40 uM after 1 to 11 days by tetrazolium reagent based assay; type: functional, cell-based
A549 = experiment: Cytotoxicity against human A549 cells at 40 uM after 1 to 11 days by tetrazolium reagent based assay; type: functional, cell-based
HCT-116 = experiment: Cytotoxicity against human HCT116 cells at 40 uM after 1 to 11 days by tetrazolium reagent based assay; type: functional, cell-based
K562 = experiment: Cytotoxicity against human K562 cells at 40 uM after 1 to 11 days by tetrazolium reagent based assay; type: functional, cell-based
Acetylcholinesterase = Acetylcholinesterase (Homo sapiens, UniProt P22303); experiment: Inhibition of human erythrocyte acetylcholinesterase using acetylthiocholine as substrate preincubated for 20 mins followed by substrate addition and measured after 30 mins by Ellman's method
Chain of Acetylcholinesterase (P22303 whole entry): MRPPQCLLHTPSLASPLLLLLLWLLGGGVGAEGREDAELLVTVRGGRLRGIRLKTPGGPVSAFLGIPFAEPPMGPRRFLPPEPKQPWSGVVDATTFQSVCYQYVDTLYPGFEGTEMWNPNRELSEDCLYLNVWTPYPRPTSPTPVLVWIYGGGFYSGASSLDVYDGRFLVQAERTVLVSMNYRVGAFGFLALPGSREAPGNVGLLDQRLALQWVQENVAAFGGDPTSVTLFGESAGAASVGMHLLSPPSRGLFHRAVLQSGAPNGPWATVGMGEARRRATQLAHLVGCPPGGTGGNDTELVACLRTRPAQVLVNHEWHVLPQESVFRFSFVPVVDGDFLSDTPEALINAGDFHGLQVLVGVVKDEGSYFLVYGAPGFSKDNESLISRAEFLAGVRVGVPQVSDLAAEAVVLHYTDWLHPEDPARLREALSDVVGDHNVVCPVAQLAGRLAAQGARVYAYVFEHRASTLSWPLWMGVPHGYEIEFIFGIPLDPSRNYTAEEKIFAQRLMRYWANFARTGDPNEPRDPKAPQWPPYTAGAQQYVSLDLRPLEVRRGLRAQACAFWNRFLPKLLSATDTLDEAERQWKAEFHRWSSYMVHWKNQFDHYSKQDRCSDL

Compound | Activity (RAW264.7) | Activity (HepG2) | Activity (MDA-MB-231) | Activity (A549) | Activity (HCT-116) | Activity (K562) | IC50 (Acetylcholinesterase) [µM]
CCC(C)C(=O)[C@]12C(=O)[C@]3(CC=C(C)C)OC1(O)[C@](CC=C(C)C)(C[C@H](CC=C(C)C)C2(C)C)C3=O (stereo partly drawn) | inactive | inactive | inactive | inactive | inactive | inactive | –
CC(C)=CC[C@H]1C[C@]2(CC=C(C)C)C(=O)[C@]3(CC=C(C)C)O[C@@]1(C(=O)C(C)C)[C@@]2(O)C(C)(C)C3=O | inactive | inactive | inactive | inactive | inactive | inactive | 20.7
